Experimental data reported in ChEMBL document CHEMBL1128815, “Uracil-based angiotensin II receptor antagonists” (Bioorg Med Chem Lett, 1995).

Assays:
[1] = biological target: T1, Type-1 angiotensin II receptor (Bos taurus, UniProt P25104); assay: Tested for binding affinity against angiotensin II receptor in bovine adrenal cortex; format: tissue-based
T1 sequence (P25104 whole entry): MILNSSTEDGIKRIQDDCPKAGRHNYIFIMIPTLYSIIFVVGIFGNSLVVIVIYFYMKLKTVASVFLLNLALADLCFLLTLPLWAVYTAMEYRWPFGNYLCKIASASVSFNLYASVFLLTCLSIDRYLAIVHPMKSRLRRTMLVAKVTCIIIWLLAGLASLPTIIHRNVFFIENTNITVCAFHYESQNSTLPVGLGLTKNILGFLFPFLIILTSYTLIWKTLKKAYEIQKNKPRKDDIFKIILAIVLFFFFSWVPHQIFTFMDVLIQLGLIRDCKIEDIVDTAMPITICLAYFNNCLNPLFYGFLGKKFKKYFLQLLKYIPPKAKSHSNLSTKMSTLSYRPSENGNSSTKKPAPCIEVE

[2] = biological target: T2, Type-1 angiotensin II receptor B (Rattus norvegicus, UniProt P29089); assay: Tested for binding affinity against angiotensin II receptor in rat adrenal cortex; format: tissue-based
T2 sequence (P29089 whole entry): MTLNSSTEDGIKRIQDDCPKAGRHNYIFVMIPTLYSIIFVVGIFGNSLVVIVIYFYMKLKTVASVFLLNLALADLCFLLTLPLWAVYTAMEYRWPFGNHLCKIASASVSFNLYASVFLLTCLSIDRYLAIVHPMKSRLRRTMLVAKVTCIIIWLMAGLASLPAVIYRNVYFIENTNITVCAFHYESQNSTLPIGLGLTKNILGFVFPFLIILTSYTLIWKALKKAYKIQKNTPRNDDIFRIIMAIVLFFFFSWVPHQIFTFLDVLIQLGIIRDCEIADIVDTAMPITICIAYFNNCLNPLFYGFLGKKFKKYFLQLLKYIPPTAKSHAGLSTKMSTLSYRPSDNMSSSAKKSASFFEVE

| IC50 [1] | IC50 [2] | Compound |
| --- | --- | --- |
| 25 nM | – | CCCc1cc(=O)n(Cc2ccccc2)c(=O)n1Cc1ccc(-c2ccccc2-c2nn[nH]n2)cc1 |
| 55 nM | 17 nM | CCCc1cc(=O)n(C)c(=O)n1Cc1ccc(-c2ccccc2-c2nn[nH]n2)cc1 |
| 9.3 nM | 0.65 nM | CCCc1cc(=O)n(CC(=O)N(C)C)c(=O)n1Cc1ccc(-c2ccccc2-c2nn[nH]n2)cc1 |
| 160 nM | – | CCCCc1nc(Cl)c(CO)n1Cc1ccc(-c2ccccc2-c2nn[nH]n2)cc1 [LOSARTAN] |
| 16 nM | – | CCCCn1c(=O)cc(CCC)n(Cc2ccc(-c3ccccc3-c3nn[nH]n3)cc2)c1=O |
| 2400 nM | – | Cn1c(=O)cc(C2CC2)n(Cc2ccc(-c3ccccc3-c3nn[nH]n3)cc2)c1=O |
| 1000 nM | – | CCc1cc(=O)n(C)c(=O)n1Cc1ccc(-c2ccccc2-c2nnn[nH]2)cc1 |
| 20 nM | 2.3 nM | CCCc1cc(=O)n(Cc2ccccc2C(=O)OC)c(=O)n1Cc1ccc(-c2ccccc2-c2nnn[nH]2)cc1 |
| 34 nM | 3.3 nM | C=CCn1c(=O)cc(CCC)n(Cc2ccc(-c3ccccc3-c3nnn[nH]3)cc2)c1=O |
| 44 nM | 4.5 nM | CCCCc1cc(=O)n(C)c(=O)n1Cc1ccc(-c2ccccc2-c2nn[nH]n2)cc1 |
| 6600 nM | – | CCCc1c(C)c(=O)n(C)c(=O)n1Cc1ccc(-c2ccccc2-c2nnn[nH]2)cc1 |
| 27 nM | 2.4 nM | CCCCc1cc(=O)n(Cc2ccccc2C(=O)OC)c(=O)n1Cc1ccc(-c2ccccc2-c2nnn[nH]2)cc1 |
| 62 nM | 6.2 nM | CCCc1cc2ncnn2c(=O)n1Cc1ccc(-c2ccccc2-c2nnn[nH]2)cc1 |
| 100 nM | 4.3 nM | CCCc1cc(=O)[nH]c(=O)n1Cc1ccc(-c2ccccc2-c2nn[nH]n2)cc1 |
| 23 nM | 1.4 nM | CCCc1cc(=O)n(CCNC(=O)NC2CCCCC2)c(=O)n1Cc1ccc(-c2ccccc2-c2nnn[nH]2)cc1 |
| 40 nM | 3.4 nM | CCCc1cc(=O)n(CCNC(C)=O)c(=O)n1Cc1ccc(-c2ccccc2-c2nnn[nH]2)cc1 |
| 520 nM | 83 nM | CCCCc1cc(=O)n2nc(-c3ccccc3)nc2n1Cc1ccc(-c2ccccc2-c2nn[nH]n2)cc1 |
